Data as given in PMC6315541, “Nile Tilapia Derived Antimicrobial Peptide TP4 Exerts Antineoplastic Activity Through Microtubule Disruption” (Marine Drugs, 2018).

Legend:
[1] = system: microtubule network (α-Tubulin) in A549 cells; assay: Immunocytochemistry of microtubule network and peptide uptake in A549 cells; type: cell-based, human; conditions: for effect on microtubule network (α-Tubulin ICC): FITC-labeled mutants
Protocol: (§1) To examine whether TP4 may affect microtubule dynamics, A549 cells were treated with TP4, and cytoskeletal elements were analyzed by immunocytochemistry (ICC). […] We then asked whether TP4 treatment may influence tubulin protein levels by performing Western blots on lysates from A549 cells that had been treated with vehicle or TP4. […] We next conducted a microtubule regrowth assay to further address whether TP4 may disrupt microtubule polymerization. TP4 was applied to A549 cells that had been treated with or without Nocodazole (20 μM) treatment for 6 h, which completely depolymerizes the microtubule network. The repolymerization of microtubules was then initialized by the addition of fresh recovery medium, and regrowth was analyzed by ICC.
While the reduced toxicity may result from impaired binding to tubulin, it is also possible that such effects may be caused by conformational changes in the TP4 mutants, see Supplementary Figure S1C,D, which prevent intracellular penetration. To test this possibility, ICC was conducted to evaluate the cellular localization and the effects on microtubules. […] For both Gly and Ala substitution mutants, FITC-labeled TP4 mutants were able to be taken up intracellularly, see Figure 6B, panels MT-1 to MT-6. However, the microtubule network was only affected in MT-1- and MT-4-treated cells and not the other mutant-treated groups, as shown in Figure 6B.
Figure 6 Loss of cancer-killing ability in TP4 mutants. (A) Cell viability in A549 cells was determined by the adenosine triphosphate (ATP) assay following treatment with varying doses of TP4 and TP4 mutants for 24 h. Multiple wells were analyzed for each assay. Results represent the mean ± SD. Statistical comparisons between groups were performed using two-way ANOVA: a, not significant; b, p < 0.05; d, p < 0.001. Statistical analyses are shown in Supplementary Table S1. (B) Cells were stained for TP4 (WT panel), FITC (MT-1 to MT-6 panels), α-Tubulin, and F-actin. Hoechst33342 was used for nuclei staining. Boxed regions are magnified in the furthest right panels. […] Bar: 20 μm.
Cells were stained with TP4 (1:1000), FITC (1:500, ThermoFisher Scientific, clone 1F8-1E4), α-Tubulin (1:500), and appropriate Alexa Flour conjugated secondary antibody (1:500; ThermoFisher Scientific, Eugene, OR, USA). Hochest33342 was used for nuclear staining, and Alexa Fluor 647-conjugated phalloidin (1:200, Thermo Fisher Scientific, Eugene, OR, USA) was used to stain F-actin. For the confocal microscopic analysis, samples were mounted with fluorescent mounting medium (ProLong Gold Antifade Reagent, ThermoFisher Scientific, Eugene, OR, USA) and images were obtained with a FV3000 laser-scanning confocal microscope (Olympus), using a 60 × objective lens (Plapon 60 × OSC2, N.A. 1.4, oil) with the 4′,6-diamidino-2-phenylindole (DAPI) ([…]), green fluorescent protein (GFP) (EX 470, EM 525 for enhanced GFP (EGFP)), and Cy5 ([…]) emission filters. FV31S software (Olympus, Tokyo, Japan) was used for image acquisition.

[2] = system: microtubule regrowth in A549 cells; assay: Microtubule regrowth assay after nocodazole washout; type: cell-based, human; conditions: 10 μg mL^−1 TP4 3 h, nocodazole 20 μM 6 h, washout and recovery medium, α-Tubulin ICC, N = 3
Protocol: as §1
Figure 2 TP4 disrupts the microtubule network in cancer cells. (A) Cells were stained for α-Tubulin and F-actin. Hoechst33342 was used to stain nuclei. Arrows indicate cells with negative α-Tubulin staining. Bar: 20 μm. (B) Total lysates from cells with mock (labeled C) or TP4 treatment (labeled T) were analyzed by Western blot using antibodies against GAPDH and α-Tubulin. Quantification of the α-Tubulin signal normalized to GAPDH is shown. Mr is the molecular weight. […] Bar: 20 μm (D) Quantification of the number of cells with Tubulin-positive and Tubulin-negative staining. […]

Sequence: FIHHIIGGLFSAGKAIHRLIRRRRR [TP4, synthesized Nile tilapia-derived antimicrobial peptide, Tilapia piscidin 4]
- effect on microtubule network (α-Tubulin ICC; F-actin not affected) ([1]; A549 cells treated with TP4, Figure 2A): clearly affected
- effect on microtubule network (α-Tubulin ICC) ([1]; A549 cells, TP4 6.71 μM, 3 h, Figure 6B): microtubule defects were clearly observed
- effect on microtubule network (α-Tubulin ICC) ([1]; A549 cells, TP4 6.71 μM, 3 h, Figure 6B, listed as WT): microtubule abnormalities were observed
- intracellular uptake (ICC, TP4 antibody or FITC) ([1]; A549 cells, TP4 6.71 μM, 3 h, mutants FITC-labeled, Figure 6B): peptide penetration
- cells with microtubule regrowth defects [2]: increased portion of TP4-treated cells had microtubule regrowth defects
